According to patent US8148070B2, “Genetic polymorphisms associated with coronary events and drug response, methods of detection and uses thereof” (Celera Corporation, priority 2007, dated 2012):

Tested on: elderly men and women (ages 70-82)
Experiment: PROSPER trial: pravastatin vs placebo, coronary events in elderly by KIF6 719Arg carrier status
Type: in vivo, human
Conditions: for hazard ratio (coronary events, pravastatin vs placebo) / Hazard ratio: PROSPER; for hazard ratio (coronary events, pravastatin vs placebo): ages 70-82; for event (number of patients) / no event (number of patients): pravastatin arm of PROSPER; for Hazard ratio: pravastatin vs placebo, risk of CHD
Procedure: In this analysis, the KIF6 Trp719Arg polymorphism was analyzed in samples from the “Prospective Study of Pravastatin in the Elderly at Risk” (PROSPER) trial (PROSPER is described further in Shepherd et al., Lancet. 2002 Nov. 23; 360(9346):1623-30). PROSPER was both a secondary and primary trial of elderly men and women (ages 70-82). […] Since an interaction has been observed between KIF6 carrier status and prior vascular events, groups with and without prior vascular events were genotyped separately.
5752 patients were genotyped within the PROSPER trial, and Cox proportional hazards models were used to investigate (1) the risk for coronary events in 719Arg carriers compared with noncarriers in a placebo arm, and (2) the effect of statin therapy according to 719Arg carrier status in a pravastatin arm.
To assess the effect of pravastatin, risk estimates were used to compare the pravastatin arm with the placebo arm in subgroups defined by genotypes.

[1] = carrier (minor homozygote + heterozygote)

## CC[C@H](C)C(=O)O[C@H]1C[C@H](O)C=C2C=C[C@H](C)[C@H](CC[C@@H](O)C[C@@H](O)CC(=O)O)[C@H]21 [Pravastatin, pravastatin]
719Arg carriers with prior vascular disease
  hazard ratio (coronary events, pravastatin vs placebo): 0.67
Noncarriers with prior vascular disease
  hazard ratio (coronary events, pravastatin vs placebo): 0.92
[1]
  event (number of patients): 103
  no event (number of patients): 657
rs20455 genotype AA
  event (number of patients): 80
  no event (number of patients): 456
rs20455 genotype AG
  event (number of patients): 85
  no event (number of patients): 501
rs20455 genotype GG
  event (number of patients): 18
  no event (number of patients): 156
KIF6 719Arg carrier, Model 1 unadjusted
  Hazard ratio: 0.67
KIF6 719Arg carrier, Model 2 adjusted for age, sex and smoking status
  Hazard ratio: 0.67
KIF6 719Arg carrier, Model 3 adjusted for age, sex, smoking status, history of hypertension, LDL, HDL and history of diabetes
  Hazard ratio: 0.67
KIF6 rs20455 heterozygote, Model 1 unadjusted
  Hazard ratio: 0.67
KIF6 rs20455 heterozygote, Model 2 adjusted for age, sex and smoking status
  Hazard ratio: 0.67
KIF6 rs20455 heterozygote, Model 3 adjusted for age, sex, smoking status, history of hypertension, LDL, HDL and history of diabetes
  Hazard ratio: 0.68
KIF6 rs20455 major homozygote (noncarrier), Model 1 unadjusted
  Hazard ratio: 0.93
KIF6 rs20455 major homozygote (noncarrier), Model 2 adjusted for age, sex and smoking status
  Hazard ratio: 0.92
KIF6 rs20455 major homozygote (noncarrier), Model 3 adjusted for age, sex, smoking status, history of hypertension, LDL, HDL and history of diabetes
  Hazard ratio: 0.92
KIF6 rs20455 minor homozygote, Model 1 unadjusted
  Hazard ratio: 0.65
KIF6 rs20455 minor homozygote, Model 2 adjusted for age, sex and smoking status
  Hazard ratio: 0.65
KIF6 rs20455 minor homozygote, Model 3 adjusted for age, sex, smoking status, history of hypertension, LDL, HDL and history of diabetes
  Hazard ratio: 0.63
